{"source": "patent US20100209931A1", "about": "“Compositions for Identifying Novel Compositions for the Treatment of Disease and Methods of Using Same” (priority 2009, published 2010)", "key": {"[1]": {"system": "erg6Δ ira2Δ cells", "test": "96-well plate growth assay, erg6Δ ira2Δ strain", "format": "cell-based, Saccharomyces cerevisiae", "conditions": "for sensitivity of growth to compound: erg6Δ ira2Δ, 96-well plate growth assay, optical density, 30° C."}, "[2]": {"system": "erg6Δ cells", "test": "96-well plate growth assay, erg6Δ strain", "format": "cell-based, Saccharomyces cerevisiae"}, "[3]": {"system": "cells lacking IRA2", "test": "growth of cells lacking IRA2, 96-well plates", "format": "cell-based, Saccharomyces cerevisiae"}, "[4]": {"system": "erg6Δ iralΔ ira2Δ", "test": "96-well plate growth assay, erg6Δ ira1Δ ira2Δ strain", "conditions": "genotype erg6Δ iralΔ ira2Δ; OD 595 nm after 24 hours", "experimental": "Wild type yeast cells (MLY41 a strain derived from the Σ11278b background) and cells having the genotypes shown in Table 2 are grown overnight in SC media, 75 μL of culture at a starting optical density of 0.1 are added to a 96 well plate containing 75 μL of SC media with twice the desired final concentration of the compound of Formula I in 1% DMSO. Plates are incubated in a humidified 30° C. chamber and scanned on an optical density plate reader at 595 nm after 24 hours. […] Strains are treated as described above, and the growth of the culture is monitored for 24 hours at the indicated intervals. The points represent the mean of three wells per condition."}, "[5]": {"system": "MPNST cell lines", "test": "growth of MPNST cell lines", "format": "cell-based, human"}, "[6]": {"system": "erg6Δ ira2Δ cells", "test": "growth on solid agar media, serial dilutions spotted", "conditions": "SC plates with compound, three days at 30° C."}}, "note": "“Also recorded” adds a separate entry of the source.", "data": [{"smiles": "N=C(N)SCc1cn(-c2ccccc2)nc1-c1cccc(Br)c1", "note": "[Formula II]", "values": [{"measurement": "sensitivity of growth to compound", "setting": "[1]", "result": "differential sensitivity"}, {"measurement": "Effect of Compound of Formula II", "setting": "[1]; genotype ira2Δ, erg6Δ, OD 595 nm after 24 hours", "result": "Inhibition at 10 uM and 50 uM"}, {"measurement": "Effect of Compound of Formula II", "setting": "[2]; genotype erg6Δ, OD 595 nm after 24 hours", "result": "Inhibition at 50 uM"}, {"measurement": "growth of cells lacking IRA2", "setting": "[3]; FIG. 7", "result": "Growth inhibition"}, {"measurement": "Effect of Compound of Formula II (inhibition at concentration)", "setting": "[4]", "result": "Inhibition at less than 10 uM"}]}, {"smiles": "COc1cccc(-c2cc(=O)c3ccccc3o2)c1N", "note": "[PD98059]", "values": [{"measurement": "sensitivity of cells lacking ERG6 and IRA2", "setting": "[1]; 50 μM PD98059", "result": "sensitive"}, {"measurement": "sensitivity of cells lacking ERG6 and IRA2", "setting": "[1]; 25 μL (so in the source) PD98059, 24 hours", "result": "less sensitive"}, {"measurement": "sensitivity of growth to compound", "setting": "[1]", "result": "sensitized; also recorded: increased sensitivity"}, {"measurement": "sensitivity of growth to compound", "setting": "[2]; erg6Δ alone, 96-well plate growth assay", "result": "not sensitive"}, {"measurement": "growth in MPNST lines", "setting": "[5]", "result": "inhibiting growth"}, {"measurement": "selective suppression of growth of NF1-/- MPNST cell line relative to NF1+/+ MPNST line", "setting": "[5]; NF1−1− MPNST cell line relative to NF1+/+ MPNST line", "result": "selectively suppress growth"}, {"measurement": "sensitivity of growth on agar media", "setting": "[6]", "result": "increased sensitivity"}]}, {"smiles": "CC[C@@]1(O)C(=O)OCc2c1cc1n(c2=O)Cc2cc3ccccc3nc2-1", "note": "[camptothecin]", "values": [{"measurement": "sensitivity of growth on agar media", "setting": "[6]", "result": "differential sensitivity; also recorded: sensitizes"}]}, {"smiles": "CO[C@H]1C[C@@H]2CC[C@@H](C)[C@@](O)(O2)C(=O)C(=O)N2CCCC[C@H]2C(=O)O[C@H]([C@H](C)C[C@@H]2CC[C@@H](O)[C@H](OC)C2)CC(=O)[C@H](C)/C=C(\\C)[C@@H](O)[C@@H](OC)C(=O)[C@H](C)C[C@H](C)/C=C/C=C/C=C/1C", "note": "[rapamycin]", "values": [{"measurement": "growth inhibition of cells lacking IRA2 by rapamycin alone", "setting": "[3]; rapamycin dose used in combination, 24 hours", "result": "does not inhibit"}]}]}
